Data taken from PMC7253177, “Gain of channel function and modified gating properties in TRPM3 mutants causing intellectual disability and epilepsy” (eLife, 2020).
Residue numbers refer to the chain shown, from its start.

Key:
[1] = test system: P1090Q hTRPM3 co-transfected with µ-opioid receptors; assay: Whole-cell patch clamp, Gβγ-mediated inhibition of PS-activated currents, cells co-transfected with µ-opioid receptor and P1090Q TRPM3; format: cell-based, human; details: 1 µM DAMGO, PS 40 µM
Method: (§1) TRPM3 activity is inhibited upon activation of G protein-coupled receptors, via a mechanism that involves direct binding of the Gβγ of trimeric G-proteins to the channel ([Badheka et al., 2017]; [Dembla et al., 2017]; [Quallo et al., 2017]).
(§2) HEK293T cells ([Graham et al., 1977]) were cultured as described previously ([Vriens et al., 2007]) and used up in passage number 14. HEK293T cells were tested for the lack of mycoplasma and transiently transfected with 2 µg of DNA using TransIT transfection reagent (Mirus) 36–48 hr before the measurements. In case of co-cultures a ratio of 1:1 between hTRPM3-YFP WT and mutants-YFP DNA was used.
(§3) Standard whole-cell patch-clamp recordings were performed with an EPC-10 amplifier and the PatchMasterPro Software (HEKA Elektronik, Lambrecht, Germany). Current measurements were performed at a sampling rate of 20 kHz and currents were digitally filtered at 2.9 kHz. In all measurements, 70% of the series resistance was compensated. The standard internal solution contained (in mM): 100 CsAsp, 45 CsCl, 10 EGTA, 10 HEPES, 1 MgCl2 (pH 7.2 with CsOH) or 140 potassium gluconate, 5 EGTA, 1 MgCl2, 10 HEPES and 2 NaATP (pH 7.3 with CsOH) for the measurements of Gβγ mediated inhibition and the standard extracellular solution contained (in mM): 150 NaCl, 1 MgCl2, 10 HEPES (pH 7.4 with NaOH). […]

[2] = test system: WT hTRPM3 co-transfected with µ-opioid receptors; assay: Whole-cell patch clamp, Gβγ-mediated inhibition of PS-activated currents, cells co-transfected with µ-opioid receptor and WT TRPM3; format: cell-based, human
Method: as §1, §2, §3

[3] = test system: V990M hTRPM3 co-transfected with µ-opioid receptors; assay: Whole-cell patch clamp, Gβγ-mediated inhibition of PS-activated currents, cells co-transfected with µ-opioid receptor and V990M TRPM3; format: cell-based, human
Method: as §1, §2, §3

WT human TRPM3 = biological target: T1, WT human TRPM3 (Homo sapiens, UniProt Q9HCF6); assay: Whole-cell patch clamp, HEK293T cells expressing WT hTRPM3; format: cell-based; details: cells not co-transfected with the µ-opioid receptor; DAMGO 1 µM, PS 40 µM
T1 construct: expressed in transfected cells; host or cells: HEK293T
T1 sequence (Q9HCF6 1-1325 isoform Q9HCF6-10): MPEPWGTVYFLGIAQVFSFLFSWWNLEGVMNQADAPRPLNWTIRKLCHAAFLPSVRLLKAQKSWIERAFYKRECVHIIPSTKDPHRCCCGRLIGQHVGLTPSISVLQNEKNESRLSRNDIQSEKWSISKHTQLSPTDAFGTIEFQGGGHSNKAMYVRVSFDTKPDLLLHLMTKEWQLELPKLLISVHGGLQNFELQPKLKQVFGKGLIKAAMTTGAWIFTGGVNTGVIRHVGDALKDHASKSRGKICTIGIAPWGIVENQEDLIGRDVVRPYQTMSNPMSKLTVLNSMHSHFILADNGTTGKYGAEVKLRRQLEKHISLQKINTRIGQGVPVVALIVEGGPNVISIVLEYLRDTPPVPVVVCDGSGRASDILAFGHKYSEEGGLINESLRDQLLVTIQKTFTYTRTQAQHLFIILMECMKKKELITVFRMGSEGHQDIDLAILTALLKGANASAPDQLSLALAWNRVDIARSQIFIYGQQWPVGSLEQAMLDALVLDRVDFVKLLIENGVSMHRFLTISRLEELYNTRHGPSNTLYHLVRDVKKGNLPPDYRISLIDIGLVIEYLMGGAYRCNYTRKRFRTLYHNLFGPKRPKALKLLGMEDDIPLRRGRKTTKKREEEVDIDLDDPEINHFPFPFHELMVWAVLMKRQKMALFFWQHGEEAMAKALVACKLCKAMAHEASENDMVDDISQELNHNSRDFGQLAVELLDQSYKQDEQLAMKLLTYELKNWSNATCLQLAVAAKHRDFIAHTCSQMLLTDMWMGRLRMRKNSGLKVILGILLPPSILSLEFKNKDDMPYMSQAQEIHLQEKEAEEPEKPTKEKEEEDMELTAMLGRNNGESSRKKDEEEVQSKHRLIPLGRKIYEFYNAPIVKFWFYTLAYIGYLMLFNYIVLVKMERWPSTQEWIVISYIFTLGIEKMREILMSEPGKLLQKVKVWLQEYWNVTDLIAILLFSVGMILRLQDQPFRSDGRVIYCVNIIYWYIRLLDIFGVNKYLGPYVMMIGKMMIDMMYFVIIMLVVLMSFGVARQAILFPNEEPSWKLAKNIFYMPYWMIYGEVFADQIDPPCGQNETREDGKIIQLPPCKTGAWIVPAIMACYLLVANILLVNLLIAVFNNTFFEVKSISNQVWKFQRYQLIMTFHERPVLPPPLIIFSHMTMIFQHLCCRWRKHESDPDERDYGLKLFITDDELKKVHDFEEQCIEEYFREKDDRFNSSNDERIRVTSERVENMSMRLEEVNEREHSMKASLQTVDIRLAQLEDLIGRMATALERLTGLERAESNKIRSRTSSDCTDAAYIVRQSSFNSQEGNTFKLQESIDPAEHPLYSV
Method: as §2
(§4) Standard whole-cell patch-clamp recordings were performed with an EPC-10 amplifier and the PatchMasterPro Software (HEKA Elektronik, Lambrecht, Germany). Current measurements were performed at a sampling rate of 20 kHz and currents were digitally filtered at 2.9 kHz. In all measurements, 70% of the series resistance was compensated. The standard internal solution contained (in mM): 100 CsAsp, 45 CsCl, 10 EGTA, 10 HEPES, 1 MgCl2 (pH 7.2 with CsOH) or 140 potassium gluconate, 5 EGTA, 1 MgCl2, 10 HEPES and 2 NaATP (pH 7.3 with CsOH) for the measurements of Gβγ mediated inhibition and the standard extracellular solution contained (in mM): 150 NaCl, 1 MgCl2, 10 HEPES (pH 7.4 with NaOH). The standard patch pipette resistance was between 2 MΩ and 4 MΩ when filled with pipette solution. In experiments allowing Ca^2+-dependent desensitization of TRPM3, Mg^2+ was replaced by Ca^2+ in the extracellular solution, and Cs^+ was replaced by Na^+ in the pipette solution. […] The chemical ligands were dissolved in bath solution from a stock diluted in DMSO.

TRPM3 V990M mutant = biological target: T2, TRPM3 V990M mutant (Homo sapiens, UniProt Q9HCF6, V1015M); assay: Whole-cell patch clamp, HEK293T cells expressing V990M hTRPM3; format: cell-based; details: La3+ 10 µM, PS 40 µM, ±150 mV
T2 construct: expressed in transfected cells; host or cells: HEK293T
T2 sequence (Q9HCF6 1-1325 isoform Q9HCF6-10 V990M): T1 sequence (Q9HCF6 1-1325 isoform Q9HCF6-10) with V990M
Method: as §2
All mutants were obtained by the standard PCR overlap extension method using hTRPM3 directly linked to YFP from pCAGGS/IRES-GFP vector ([Vriens et al., 2007]). Accuracy of all mutant sequences was verified by sequencing of the entire DNA constructs.
as §4

[4] = n = 5, read-out: IC50, DAMGO concentration for half-maximal inhibition of PS-activated currents

Row | Compound | Inhibition of PS-activated inward and outward currents [1] | Inhibition of PS-activated inward and outward currents ([2]; 1 µM DAMGO, PS 40 µM) | IC50 [2, 4] [nM] | Inhibition of PS-activated inward and outward currents ([3]; 1 µM DAMGO, PS 40 µM) | IC50 [3, 4] [nM] | Effect on TRPM3 currents (WT human TRPM3) | Block of the inward component of the PS-activated current (TRPM3 V990M mutant)
1 | [D-Ala^2, N-Me-Phe^4, Gly^5-ol]-enkephalin acetate salt [DAMGO] | complete and rapidly reversible inhibition | complete and rapidly reversible inhibition | 4 ± 0.6 | only partly inhibited | 40 ± 10 | without effect | 
2 | [La+3] [La^3+, Lanthanum] |  |  |  |  |  |  | resistant to block
